How the values were obtained:
endogenous interferon [1] = test: Interferon inducing activity in vivo during intragastric administration to mice; details: 1000 μg/mouse, background 7-10 units
[2] = Concentration in blood plasma of rabbits during vaginal administration (vaginal suppositories 0.1 g); assay type: in vivo
Experimental: Concentration in blood plasma of the experimental animals during vaginal administration of the inventive substance.
The results of measuring the concentration of the substance in blood plasma of rabbits during vaginal administration in the form of “vaginal suppositories 0.1 g” are shown on the provided diagram in the form of averaged pharmacokinetic curves (see FIG. 1). After inserting the suppository, the substance began to enter the general blood circulation after approximately 15 minutes; after 1 hour the concentration of the substance in the blood reached its maximum (approximately 120 μg/ml); then it was gradually excreted from the organism, and 24 hours after its administration the detected presence of the substance in blood plasma was minimal (approximately 20 μg/ml). The dispersion of individual values was moderate: coefficient of variation CV amounted to 13-22%.

endogenous interferon [3] = test: Interferon inducing activity in vivo during oral administration to mice; details: 5.0 mg/mouse, background 7-10 units

Compound: COC(=O)c1cccc(Nc2cc(=O)[nH]c(=O)[nH]2)c1 [The inventive substance, monomer, 6-(3-methoxycarbonylphenyl) amino-2,4 (1H, 3H)-pyrimidinedione]
- Interferon inducing activity, 2 hours (endogenous interferon [1]; 2 hours): 30 IU
- Interferon inducing activity, 4 hours (endogenous interferon [1]; 4 hours): 10 IU
- Interferon inducing activity, 6 hours (endogenous interferon [1]; 6 hours): 160 IU
- Interferon inducing activity, 8 hours (endogenous interferon [1]; 8 hours): 25-30 IU
- Interferon inducing activity, 24 hours (endogenous interferon [1]; 24 hours): 30 IU
- Time at which concentration in the blood reached its maximum [2]: 1 h
- Time until the substance began to enter the general blood circulation [2]: approximately 15 minutes
- Maximum concentration of the substance in the blood ([2]; after 1 hour): approximately 120 μg/ml
- concentration at 24 h ([2]; rabbit, plasma, other: vaginal, 24 hours, read-out: Concentration of the substance in blood plasma 24 hours after administration): ~20000 ng/mL
- Interferon inducing activity, 2 hours (endogenous interferon [3]; 2 hours): 18 IU
- Interferon inducing activity, 4 hours (endogenous interferon [3]; 4 hours): 120 IU
- Interferon inducing activity, 6 hours (endogenous interferon [3]; 6 hours): 20 IU
- Interferon inducing activity, 8 hours (endogenous interferon [3]; 8 hours): 40 IU
- Interferon inducing activity, 24 hours (endogenous interferon [3]; 24 hours): 100 IU
